Assay [1] relates to Daoy. As to the kind of experiment: Cytotoxicity against human DaOY cells assessed as inhibition of cell survival at 25 ug/ml after 24 hrs by MTT assay. The format is functional. A general note: Formazan colour is commonly taken as a measure of viable cells.
Assay [2] has as its system Daoy. The experiment in a line: Cytotoxicity against human DaOY cells assessed as inhibition of cell survival after 24 hrs by MTT assay. In kind it is functional, cell-based.
Assay [3] can be described thus: Cytotoxicity against human UW228-2 cells assessed as inhibition of cell survival at 25 ug/ml after 24 hrs by MTT assay. The format is functional. To be noted: UW228-2, 24 h.
A short description of assay [4]: Cytotoxicity against human UW228-2 cells assessed as inhibition of cell survival after 24 hrs by MTT assay. To be noted: UW228-2, 24 h. In kind it is functional, cell-based.
A short description of assay [5]: Cytotoxicity against human HuH7 cells assessed as inhibition of cell survival at 25 ug/ml after 24 hrs by MTT assay. The format is functional. To be noted: Huh-7, 24 h.
Assay [6] is described as follows: Cytotoxicity against human HuH7 cells assessed as inhibition of cell survival after 24 hrs by MTT assay. The format is functional, cell-based. Conditions: Huh-7, 24 h.
Assay [7] has as its system HeLa. As to the kind of experiment: Cytotoxicity against human HeLa cells assessed as inhibition of cell survival at 25 ug/ml after 24 hrs by MTT assay. The format is functional.
For assay [8], the system named is MDA-MB-231. The experiment in a line: Cytotoxicity against human MDA-MB-231 cells assessed as inhibition of cell survival at 25 ug/ml after 24 hrs by MTT assay. To be noted: MDA-MB-231, 24 h. In kind it is functional.
The subject of assay [9] is HeLa. As to the kind of experiment: Cytotoxicity against human HeLa cells assessed as inhibition of cell survival after 24 hrs by MTT assay. The format is functional, cell-based.
The test system of assay [10] is MDA-MB-231. The experiment in a line: Cytotoxicity against human MDA-MB-231 cells assessed as inhibition of cell survival after 24 hrs by MTT assay. In kind it is functional, cell-based. To be noted: MDA-MB-231, 24 h.

Converted amounts (≈) assume the structure as drawn.

Turning to `Cc1ccc(C(=O)Nc2ccccc2C(=O)N/N=C2\C(=O)Nc3ccccc32)cc1`, the inhibition (as a rule, the change of the read-out against control, counted positive when it falls) at 25 µg/mL came to 72.8% with Daoy [1]; 71.7% in assay [3]; 56.4% in assay [5]; 30.4% with HeLa [7]; 46.8% in the assay with MDA-MB-231 [8]. The IC50 (commonly the concentration that gives 50% inhibition) with Daoy [2] came to 3.94 µg/mL (≈ 9.89 µM); in assay [4], 6.06 µg/mL (≈ 15.2 µM); in [6], 5 µg/mL (≈ 12.5 µM).

As to `Cc1ccc(C(=O)Nc2ccccc2C(=O)N/N=C2\C(=O)Nc3ccc(Cl)cc32)cc1`, the inhibition at 25 µg/mL in the assay on Daoy [1] was 77.1%; in [3], 88.7%; in [5], 84.1%; with HeLa [7] it was 86.7%; in the assay on MDA-MB-231 [8], 85%. Moreover, the IC50 in the assay with Daoy [2] worked out at 1.86 µg/mL (≈ 4.3 µM); in assay [4], 6.87 µg/mL (≈ 15.9 µM); in assay [6], 3.2 µg/mL (≈ 7.39 µM); with HeLa [9] it was 6.52 µg/mL (≈ 15.1 µM); in the assay with MDA-MB-231 [10] it was 5.95 µg/mL (≈ 13.7 µM).

With `Cc1ccc(C(=O)Nc2ccccc2C(=O)N/N=C2\C(=O)Nc3ccc(C)cc32)cc1`, the inhibition at 25 µg/mL with Daoy [1] was found to be 49.1%; in [3] it was 23.2%; in assay [5] it was 38%; with HeLa [7], 46.5%; with MDA-MB-231 [8], 37.7%.

For `COc1ccc2c(c1)/C(=N/NC(=O)c1ccccc1NC(=O)c1ccc(C)cc1)C(=O)N2`, the inhibition at 25 µg/mL with Daoy [1] amounted to 77.2%; in assay [3], 84.8%; in assay [5], 81.6%; in the assay on HeLa [7], 80.3%; in the assay with MDA-MB-231 [8], 59.4%. In addition, the IC50 in the assay with Daoy [2] was 4.42 µg/mL (≈ 10.3 µM); in [4], 5.82 µg/mL (≈ 13.6 µM); in [6] it was 4.6 µg/mL (≈ 10.7 µM); in the assay with HeLa [9] it was 8.09 µg/mL (≈ 18.9 µM); with MDA-MB-231 [10] it was 10.9 µg/mL (≈ 25.4 µM).

With `Cc1ccc(C(=O)Nc2ccccc2C(=O)N/N=C2\C(=O)Nc3ccc([N+](=O)[O-])cc32)cc1`, the inhibition at 25 µg/mL came out at 75.8% in the assay on Daoy [1]; 38.5% in [3]; 55.2% in [5]; 26.8% in the assay on HeLa [7]; 30.2% with MDA-MB-231 [8]. Besides, the figures for the IC50 (in the assay with Daoy [2]; in assay [6]) were 6.61 µg/mL (≈ 14.9 µM) and 11.6 µg/mL (≈ 26.2 µM), respectively.

As to `O=C1Nc2ccccc2/C1=N/NC(=O)c1ccccc1NC(=O)c1ccc([N+](=O)[O-])cc1`, the inhibition at 25 µg/mL in the assay with Daoy [1] amounted to 79.1%; in [3], 51.8%; in [5], 48.6%; with HeLa [7], 55%; in the assay with MDA-MB-231 [8] it was 44.9%. Moreover, the IC50 was determined as 2.72 µg/mL (≈ 6.33 µM) with Daoy [2], 20 µg/mL (≈ 46.6 µM) in assay [4] and 16.5 µg/mL (≈ 38.5 µM) in the assay on HeLa [9].

As for `O=C1Nc2ccc(Cl)cc2/C1=N/NC(=O)c1ccccc1NC(=O)c1ccc([N+](=O)[O-])cc1`, the inhibition at 25 µg/mL in the assay with Daoy [1] was found to be 36.6%; in [3] it was 41.6%; in assay [5], 43.1%; with HeLa [7], 31%; in the assay on MDA-MB-231 [8] it was 35.5%.

Turning to `Cc1ccc2c(c1)/C(=N/NC(=O)c1ccccc1NC(=O)c1ccc([N+](=O)[O-])cc1)C(=O)N2`, the inhibition at 25 µg/mL is 62.7% with Daoy [1]; 58.7% in assay [3]; 55.8% in [5]; 46.1% in the assay with HeLa [7]; 40.8% in the assay on MDA-MB-231 [8]. Also, the results for the IC50 (in the assay on Daoy [2]; in [4]; in assay [6]) were 11.9 µg/mL (≈ 26.7 µM), 9.62 µg/mL (≈ 21.7 µM) and 19.3 µg/mL (≈ 43.5 µM), respectively.

Consider `COc1ccc2c(c1)/C(=N/NC(=O)c1ccccc1NC(=O)c1ccc([N+](=O)[O-])cc1)C(=O)N2`, for which the inhibition at 25 µg/mL was found to be 11.1% with Daoy [1]; 24.5% in [3]; 33.2% in [5]; 16.3% with HeLa [7]; 34.8% in the assay on MDA-MB-231 [8].

Consider `O=C1Nc2ccc([N+](=O)[O-])cc2/C1=N/NC(=O)c1ccccc1NC(=O)c1ccc([N+](=O)[O-])cc1`, for which the inhibition at 25 µg/mL worked out at 31.9% in the assay on Daoy [1]; 4.8% in [3]; 8.2% in assay [5]; 14.7% in the assay with HeLa [7]; 0% in the assay on MDA-MB-231 [8].

As for `Cc1ccc(-c2nc3ccccc3c(=O)n2/N=C2\C(=O)Nc3ccccc32)cc1`, the inhibition at 25 µg/mL in the assay on Daoy [1] was 41.4%; in [3], 9.3%; in assay [5], 2.9%; with HeLa [7], 42.3%; in the assay on MDA-MB-231 [8], 24.7%.

On to `Cc1ccc(-c2nc3ccccc3c(=O)n2/N=C2\C(=O)Nc3ccc(Cl)cc32)cc1`, for which the inhibition at 25 µg/mL with Daoy [1] amounted to 75.4%; in [3], 88%; in assay [5] it was 83.3%; in the assay on HeLa [7], 80.8%; with MDA-MB-231 [8], 78.1%. The IC50 with Daoy [2] worked out at 1.46 µg/mL (≈ 3.52 µM); in [4], 5.7 µg/mL (≈ 13.7 µM); in assay [6], 3.76 µg/mL (≈ 9.06 µM); in the assay with HeLa [9] it was 8.6 µg/mL (≈ 20.7 µM); in the assay on MDA-MB-231 [10] it was 4.8 µg/mL (≈ 11.6 µM).

With `Cc1ccc(-c2nc3ccccc3c(=O)n2/N=C2\C(=O)Nc3ccc(C)cc32)cc1`, the inhibition at 25 µg/mL came out at 47% in the assay on Daoy [1]; 2.1% in assay [3]; 7.2% in assay [5]; 42.8% with HeLa [7]; 34.3% in the assay with MDA-MB-231 [8].

For the compound `COc1ccc2c(c1)/C(=N/n1c(-c3ccc(C)cc3)nc3ccccc3c1=O)C(=O)N2`, the inhibition at 25 µg/mL was found to be 82.8% in the assay with Daoy [1]; 58.9% in [3]; 53.6% in assay [5]; 68% with HeLa [7]; 35.4% in the assay with MDA-MB-231 [8]. The IC50 was 3.61 µg/mL (≈ 8.8 µM) with Daoy [2], 20.8 µg/mL (≈ 50.7 µM) in [4], 22.8 µg/mL (≈ 55.6 µM) in assay [6] and 9.89 µg/mL (≈ 24.1 µM) with HeLa [9].

Turning to `Cc1ccc(-c2nc3ccccc3c(=O)n2/N=C2\C(=O)Nc3ccc([N+](=O)[O-])cc32)cc1`, the inhibition at 25 µg/mL stood at 58.8% with Daoy [1]; 22.8% in assay [3]; 0% in assay [5]; 52.9% with HeLa [7]; 23.6% with MDA-MB-231 [8]. The IC50 with Daoy [2] came out at 11.7 µg/mL (≈ 27.4 µM); in the assay with HeLa [9] it was 21.1 µg/mL (≈ 49.7 µM).

As for `O=C1Nc2ccccc2/C1=N/n1c(-c2cccs2)nc2ccccc2c1=O`, the inhibition at 25 µg/mL in the assay on Daoy [1] was 69.7%; in [3] it was 0%; in assay [5], 0%; with HeLa [7], 36.2%; in the assay with MDA-MB-231 [8], 10.7%. In addition, the IC50 in the assay on Daoy [2] turned out to be 5.4 µg/mL (≈ 14.5 µM).

As to `O=C1Nc2ccc(Cl)cc2/C1=N/n1c(-c2cccs2)nc2ccccc2c1=O`, the inhibition at 25 µg/mL in the assay on Daoy [1] was determined as 69.3%; in assay [3], 28.4%; in assay [5], 0%; in the assay on HeLa [7], 69.7%; in the assay on MDA-MB-231 [8], 6.1%. For the same compound, the IC50 with Daoy [2] turned out to be 15.7 µg/mL (≈ 38.5 µM); with HeLa [9] it was 17 µg/mL (≈ 41.7 µM).

Regarding `Cc1ccc2c(c1)/C(=N/n1c(-c3cccs3)nc3ccccc3c1=O)C(=O)N2`, the inhibition at 25 µg/mL came to 59.4% in the assay on Daoy [1]; 32.1% in assay [3]; 32.9% in [5]; 57.8% with HeLa [7]; 29.5% with MDA-MB-231 [8]. The IC50 amounted to 19 µg/mL (≈ 49.1 µM) in the assay with Daoy [2] and 19.3 µg/mL (≈ 49.9 µM) in the assay on HeLa [9].

Turning to `COc1ccc2c(c1)/C(=N/n1c(-c3cccs3)nc3ccccc3c1=O)C(=O)N2`, the inhibition at 25 µg/mL was 80.5% in the assay on Daoy [1]; 56.4% in [3]; 62.7% in [5]; 67% with HeLa [7]; 13.6% in the assay with MDA-MB-231 [8]. The IC50 was determined as 3.25 µg/mL (≈ 8.08 µM) in the assay with Daoy [2], 21.4 µg/mL (≈ 53.2 µM) in [4], 19.9 µg/mL (≈ 49.5 µM) in assay [6] and 11 µg/mL (≈ 27.3 µM) with HeLa [9].

For the compound `O=C1Nc2ccc([N+](=O)[O-])cc2/C1=N/n1c(-c2cccs2)nc2ccccc2c1=O`, the inhibition at 25 µg/mL amounted to 18.4% in the assay with Daoy [1]; 0% in assay [3]; 0% in assay [5]; 0% with HeLa [7]; 0% in the assay with MDA-MB-231 [8].

Take `Cc1cc(Br)cc2c1NC(=O)/C2=C1\SC(=S)NC1=O`: the inhibition at 25 µg/mL with Daoy [1] stood at 64.8%; in [3], 51.4%; in assay [5], 61.8%; in the assay with HeLa [7], 57.6%; in the assay with MDA-MB-231 [8] it was 52.5%. Also, the IC50 was 8.12 µg/mL (≈ 22.9 µM) in the assay on Daoy [2]; 16.4 µg/mL (≈ 46.2 µM) in [4]; 8.18 µg/mL (≈ 23 µM) in assay [6]; 13.5 µg/mL (≈ 38 µM) in the assay on HeLa [9]; 19.7 µg/mL (≈ 55.5 µM) in the assay with MDA-MB-231 [10].

Source of the values: ChEMBL document CHEMBL3407401, “Development of certain novel N-(2-(2-(2-oxoindolin-3-ylidene)hydrazinecarbonyl)phenyl)-benzamides and 3-(2-oxoindolin-3-ylideneamino)-2-substituted quinazolin-4(3H)-ones as CFM-1 analogs: design, synthesis, QSAR analysis and anticancer activity” (Eur J Med Chem, 2015).
